The conditions of data set [1]: estimated melting point temperature ranges of candidate organic compounds (Table 2); some compounds have several values, partly in parentheses, because analytic techniques differ; cited from earlier work.

Counter-ions that a name gives are not always drawn. Like-named read-outs stand apart in the source and are kept apart here.

These results are taken from patent US9779901B2, “High temperature material compositions for high temperature thermal cutoff devices” (Therm-O-Disc, Incorporated, priority 2008, dated 2017).

As for `Oc1ccc(-c2cnc(-c3cccnc3)o2)cc1` [Example 115], the Melting Point lay within 255 to 256 °C. Moreover, in data set [1], the “Melting Point” value is 255-256° ° C.
In the case of `Cc1cc(C)c(C=O)cc1C` [Example 28], the Melting Point was 243 °C. Moreover, the “Melting Point” value in data set [1] is on record as 243° ° C.
In turn, `Nc1nnc2ccccn12` [Example 48] showed a Melting Point of 245 to 247 °C. Besides, the “Melting Point” value in data set [1] is 245-247° ° C.
In turn, `O=c1cc2[nH]c3ccccc3oc-2cc1=O` [Example 185] returned a Melting Point of 264 to 265 °C. The “Melting Point” value in data set [1] is 264-265° ° C.
`O=c1cc2oc3ccccc3oc-2cc1=O` [Example 138] came in with a Melting Point of 260 to 261 °C. Besides, the “Melting Point” value in data set [1] is on record as 260-261° ° C.
The compound `Cc1c(C)c(CO)c(C)c(C)c1CO` [Example 51] showed a Melting Point of 246 to 248 °C. Moreover, the “Melting Point” value in data set [1] is reported as 246-248° ° C.
In turn, `O=C1NC(=O)C2(CCC(O)C2)c2ccncc21` (stereo not drawn) [Example 8] showed a Melting Point of 240 to 243 °C. In addition, in data set [1], the “Melting Point” value is given as 240-243° ° C.
Compound `CC(=O)Nc1cc2ccccc2c2ccc3ccccc3c12` [Example 83] displayed a Melting Point of 250 to 251 °C. Further, the “Melting Point” value in data set [1] is listed as 250-251° ° C.
`c1ccc(-c2ccnc(-c3cc(-c4ccccc4)cc(-c4cc(-c5ccccc5)ccn4)n3)c2)cc1` [Example 122]: the Melting Point fell in the range of 257 to 258 °C. For the same compound, in data set [1], the “Melting Point” value was 257-258° ° C.
For the compound `CC(C)C(=O)OC1C[C@H]2CC[C@@H](C1)N2C` (stereo partly drawn) [Example 14], the Melting Point came to 242 °C.
Turning to `O=c1ccc2c(O)cccc2o1` [Example 31], the Melting Point was 244 to 247 °C. Also, the “Melting Point” value in data set [1] is 244-247° ° C.
The compound `Nc1nnc(N)n1N` [Example 158] came in with a Melting Point of 262 to 263 °C. For the same compound, the “Melting Point” value in data set [1] is 262-263° ° C.
In turn, `O=C1N=C(NO)c2ccccc21` [Example 182] returned a Melting Point of 264 to 266 °C. Also, the “Melting Point” value in data set [1] is 264-266° ° C.
Consider `Nc1nc(N)nc(Cc2ccccc2)n1` [Example 39], for which the Melting Point came to 245 °C. Further, in data set [1], the “Melting Point” value was 245° ° C.
`COc1cc(CCN(C)C)ccc1O` [Example 129] came in with a Melting Point of 258 to 260 °C. For the same compound, the “Melting Point” value in data set [1] is on record as 258-260° ° C.
Take `Oc1ccc2cc3ccccc3cc2c1` [Example 103]: the Melting Point was found to be 254 °C. Further, in data set [1], the “Melting Point” value is listed as 254° ° C.
`CCCCCCCCn1cnc2c(=S)nc[nH]c21` [Example 188] gave a Melting Point of 264 to 266 °C. For the same compound, the “Melting Point” value in data set [1] is reported as 264-266° ° C.
As to `CC(=O)Nc1cnn2c(C)nc3ccccc3c12` [Example 125], the Melting Point was 258 to 260 °C. Moreover, the “Melting Point” value in data set [1] is 258-260° ° C.
Take `CN1CC2CC(NC(=O)c3n[nH]c4ccccc34)CC(C1)N2C` (stereo not drawn) [Example 118]: the Melting Point was 256 to 257 °C. For the same compound, the “Melting Point” value in data set [1] was 256-257° ° C.
For `O=[N+]([O-])c1nc2ccccc2[nH]1` [Example 127], the Melting Point was 258 °C. Also, the “Melting Point” value in data set [1] is given as 258° ° C.
For the compound `O=c1ccc2c(cc3ccc4cccc5ccc2c3c45)c1=O` [Example 139], the Melting Point stood at 260 °C. For the same compound, in data set [1], the “Melting Point” value is given as 260° ° C.
With `Nc1ccn(C2C=CC(N)C(C(=O)O)O2)c(=O)n1` (stereo not drawn) [Example 35], the Melting Point lay in the range of 244 to 245 °C. The “Melting Point” value in data set [1] is listed as 244-245° ° C.
For `Nc1ccc(C(=O)c2ccc(N)cc2)cc1` [Example 33], the Melting Point fell in the range of 244 to 245 °C. The “Melting Point” value in data set [1] is given as 244-245° ° C.
`c1cc2c3c(cccc3c1)-c1nc3ccccc3nc1-2` [Example 10] displayed a Melting Point of 241 °C. Moreover, in data set [1], the “Melting Point” value was 241° ° C.
Compound `CC(=O)Oc1c(C)c(C)c2c(c1C)CCC(C)(CCN(C)C)O2` (stereo not drawn) (as salt: hydrochloride) [Example 172] had a Melting Point of 263 to 270 °C.
`O=c1[nH][nH]c2ccccc12` [Example 44] registered a Melting Point of 245 to 247 °C. In addition, the “Melting Point” value in data set [1] is 245-247° ° C.
With `Nc1cccc2sc3ccccc3c(=O)c12` [Example 75], the Melting Point lay in the range of 249 to 250 °C. The “Melting Point” value in data set [1] is 249-250° ° C.
In turn, `Cn1ccc(N)nc1=O` [Example 145] showed a Melting Point of 260 to 265 °C. For the same compound, the “Melting Point” value in data set [1] is on record as 260-265° ° C.
`CN1Cc2cc(C3=NNC(=O)CC3)ccc2NC1=O` [Example 79] returned a Melting Point of 250 °C. Besides, the “Melting Point” value in data set [1] was 250° ° C.
Take `Nc1ccc2c(c1)[nH]c1ccccc12` [Example 47]: the Melting Point was 245 to 247 °C. Besides, the “Melting Point” value in data set [1] is recorded as 245-247° ° C.
With `C1=CCC2=C(C1)CC1=C(C2)CC2=C(CC=CC2)C1` [Example 4], the Melting Point is 241 to 242 °C. The “Melting Point” value in data set [1] is given as 241-242° ° C.
`O=c1[nH]c(=S)oc2ccccc12` [Example 98] registered a Melting Point of 253 °C. The “Melting Point” value in data set [1] is given as 253° ° C.
For `c1ccc(-c2nc(-c3ccccc3)c(-c3ccccc3)nc2-c2ccccc2)cc1` [Example 69], the Melting Point came to 248 °C. The “Melting Point” value in data set [1] is given as 248° ° C.
`CN(C)c1ccc(C(C)(C)C)cc1` [Example 82] registered a Melting Point of 250 to 253 °C. Moreover, the “Melting Point” value in data set [1] is 250-253° ° C.
In turn, `c1cnc2c(ccc3nccnc32)n1` [Example 20] registered a Melting Point of 242 °C. Also, the “Melting Point” value in data set [1] is recorded as 242° ° C.
`Oc1cccc2nc3ccccc3cc12` [Example 84] showed a Melting Point of 230 °C.
For the compound `Cc1ccc2cc3cc(C)ccc3cc2c1` [Example 80], the Melting Point is 250 °C.
With `Nc1ccc(N=Nc2ccc(N)cc2)cc1` [Example 81], in data set [1], the “Melting Point” value is 250° ° C.
Consider `O=C1C(=O)c2cccc3cccc1c23` [Example 27], for which, in data set [1], the “Melting Point” value is given as 243-245° ° C.
As to `CC1(C)Oc2ccc(C#N)cc2[C@@H](N2CCCC2=O)[C@@H]1O` [Example 18], the “Melting Point” value in data set [1] was 242-244° ° C.
For the compound `Nc1ccc(S(=O)(=O)Nc2cnc3ccccc3n2)cc1` [Example 58], the “Melting Point” value in data set [1] is reported as 247-248° ° C.
Take `CC1NCCc2c1[nH]c1cc(O)ccc21` (stereo not drawn) (as salt: hydrochloride) [Example 100]: the Melting Point was in the range of 254 to 255 °C.
On to `CN[C@H]1CC[C@@H](c2ccccc2)c2ccccc21` [Example 6], for which, in data set [1], the “Melting Point” value is recorded as 241-242° ° C.
Regarding `c1ccc2c(C(c3c[nH]c4ccccc34)c3c[nH]c4ccccc34)c[nH]c2c1` [Example 38], the “Melting Point” value in data set [1] is reported as 244-246° ° C.
`CN(C)c1ncnc2nc[nH]c12` [Example 89]: the “Melting Point” value in data set [1] is 251-253° ° C.
In the case of `Nc1nc(N)c2ccccc2n1` [Example 78], the “Melting Point” value in data set [1] is given as 250-252° ° C.
`Cl.c1ccc(N=C(Nc2ccccc2)Nc2ccccc2)cc1` [Example 3]: the “Melting Point” value in data set [1] is 241° ° C.
Regarding `Cn1c(=S)c2c(ncn2C)n(C)c1=O` [Example 52], the “Melting Point” value in data set [1] is reported as 246-247° ° C.
For the compound `CCCN(CCC)CCc1cccc2c1CC(=O)N2` [Example 2], the “Melting Point” value in data set [1] is 241-243° ° C.
`Nc1cc(N)nc(N)n1` [Example 70]: the “Melting Point” value in data set [1] is on record as 249-251° ° C.
`N#CC(CCN1CCC(C(=O)ON2C(=O)CCC2=O)(c2ccccc2)CC1)(c1ccccc1)c1ccccc1` [Example 17]: the “Melting Point” value in data set [1] was 242-244° ° C.
As to `c1cc(-c2sc(-c3ccncc3)c(-c3ccncc3)c2-c2ccncc2)ccn1` [Example 116], the “Melting Point” value in data set [1] was 256-258° ° C.
`COC(=O)c1cc2c(cn1)[nH]c1ccccc12` [Example 153]: the “Melting Point” value in data set [1] is on record as 261-262° ° C.
With `Cc1ccc(NC(=O)Nc2ccc(C)cc2)cc1` [Example 167], the “Melting Point” value in data set [1] is listed as 262-263° ° C.
Compound `N#CC(CCN1CCC(C(=O)ON2C(=O)CCC2=O)(c2ccccc2)CC1)(c1ccccc1)c1ccccc1` (as salt: hydrochloride) [Example 17] gave a Melting Point of 242 to 244 °C.
Consider `Cn1c(=O)c2[nH]cnc2n(C)c1=O` [Example 179], for which, in data set [1], the “Melting Point” value is listed as 264° ° C.
Regarding `NC(=O)c1ccc(Oc2ccc(C(N)=O)cc2)cc1` [Example 193], the “Melting Point” value in data set [1] is reported as 265° ° C.
With `c1ccc2cc3c(ccc4cc5ccccc5cc43)cc2c1` [Example 123], the Melting Point is 257 °C.
On to `CCCOc1ccccc1-c1nc2nn[nH]c2c(=O)[nH]1` [Example 1], for which the “Melting Point” value in data set [1] is given as 241° ° C.
Consider `N#Cc1cncnc1N` [Example 104], for which the “Melting Point” value in data set [1] is on record as 254-256° ° C.
In the case of `NC1=CC(=O)c2cccnc2C1=O` [Example 177], in data set [1], the “Melting Point” value was 263° ° C.
For `CN/C(=N\c1ccc(C2=NNC(=O)CC2C)cc1)NC#N` (stereo not drawn) [Example 180], the “Melting Point” value in data set [1] is reported as 264-265° ° C.
Turning to `Nc1nc2ccc([N+](=O)[O-])cc2s1` [Example 97], in data set [1], the “Melting Point” value is reported as 253° ° C.
As for `O=c1nc(Cc2ccccc2)[nH]c2ccccc12` [Example 102], the Melting Point is 254 to 256 °C.
In the case of `Nc1ccc2nc(N)nc(N)c2c1` [Example 109], the “Melting Point” value in data set [1] is 255-258° ° C.
The compound `Nc1nc(N)nc(Cc2ccccc2)n1` [Example 67] registered a Melting Point of 248 °C.
Still for that read-out and setting: the value for `CN[C@H]1CC[C@@H](c2ccccc2)c2ccccc21` (as salt: hydrochloride) [Example 6] was 241 to 242 °C.
For the compound `Oc1ccc2cccc(O)c2n1` [Example 146], the “Melting Point” value in data set [1] is 260° ° C.
As to `CCC(N)Cc1cc(OC)c(C)cc1OC` (stereo not drawn) [Example 46], the “Melting Point” value in data set [1] was 245-246.5° ° C.
Regarding `OCC(CO)(CO)CO` [Example 144], the “Melting Point” value in data set [1] is recorded as 260° ° C.
As to `Cc1ccc2c(c1)[nH]c1ccccc12` [Example 133], the “Melting Point” value in data set [1] was 259° ° C.
Turning to `Nc1cccc2c1C(=O)c1ccccc1C2=O` [Example 96], the “Melting Point” value in data set [1] is on record as 253-254° ° C.
